ChEMBL document CHEMBL6083255, “Synthesis and biological evaluation of novel isobenzofuran-1(3H)-one derivatives as antidepressant agents” (2024)
Calls of active or inactive are those of the source. The rule behind the calls is not given here.

Legend:
[1] = test system: RBL-2H3; experiment: Cytotoxicity against Wistar rat RBL-2H3 cells assessed as cell viability at 1 uM incubated for 24 hrs by MTT assay; format: functional; settings: read-out: Activity
[2] = test system: RBL-2H3; experiment: Cytotoxicity against Wistar rat RBL-2H3 cells assessed as cell viability at 5 uM incubated for 24 hrs by MTT assay; format: functional; settings: read-out: Activity
[3] = test system: RBL-2H3; experiment: Cytotoxicity against Wistar rat RBL-2H3 cells assessed as cell viability at 25 uM incubated for 24 hrs by MTT assay; format: functional; settings: read-out: Activity
[4] = test system: RBL-2H3; experiment: Cytotoxicity against Wistar rat RBL-2H3 cells assessed as cell viability at 125 uM incubated for 24 hrs by MTT assay; format: functional; settings: read-out: Activity
[5] = target: Sodium-dependent serotonin transporter (Rattus norvegicus) (UniProt P31652); experiment: Inhibition of SERT in Wistar rat RBL-2H3 cells assessed as decrease in fluorescence intensity at 10 uM preincubated for 2 hrs followed by APP+ addition and measured after 1 hr by fluorescence based assay; format: cell-based; settings: time 3.0 hrs
[6] = test system: CHO-K1; experiment: Agonist activity at mu opioid receptor in CHO-K1 cells assessed as increase in intracellular fluorescence intensity at 30 uM incubated for 90 sec by microplate reader assay; format: cell-based; settings: Cricetulus griseus, filed as agonist
[7] = test system: CHO-K1; experiment: Agonist activity at mu opioid receptor in CHO-K1 cells assessed as increase in intracellular fluorescence intensity at 50 uM incubated for 90 sec by microplate reader assay; format: cell-based; settings: Cricetulus griseus
[8] = test system: CHO-K1; experiment: Antagonist activity at mu opioid receptor in CHO-K1 cells assessed as intracellular fluorescence intensity at 50 uM incubated for 2 mins by microplate reader assay; format: cell-based; settings: Cricetulus griseus
[9] = test system: CHO-K1; experiment: Agonist activity at CCK-B receptor in CHO-K1 cells incubated for 90 sec by microplate reader assay; format: cell-based; settings: Cricetulus griseus
[10] = test system: CHO-K1; experiment: Antagonist activity at CCK-B receptor in CHO-K1 cells at 50 uM incubated for 90 sec by microplate reader assay; format: cell-based; settings: Cricetulus griseus
[11] = test system: RBL-2H3; experiment: Cytotoxicity against Wistar rat RBL-2H3 cells assessed as cell viability over 20 uM by MTT assay; format: functional, cell-based
[12] = test system: RBL-2H3; experiment: Induction of cell death in Wistar rat RBL-2H3 cells assessed as cell viability over 20 uM by MTT assay; format: functional, cell-based

Sodium-dependent serotonin transporter (Rattus norvegicus), sequence (P31652 whole entry): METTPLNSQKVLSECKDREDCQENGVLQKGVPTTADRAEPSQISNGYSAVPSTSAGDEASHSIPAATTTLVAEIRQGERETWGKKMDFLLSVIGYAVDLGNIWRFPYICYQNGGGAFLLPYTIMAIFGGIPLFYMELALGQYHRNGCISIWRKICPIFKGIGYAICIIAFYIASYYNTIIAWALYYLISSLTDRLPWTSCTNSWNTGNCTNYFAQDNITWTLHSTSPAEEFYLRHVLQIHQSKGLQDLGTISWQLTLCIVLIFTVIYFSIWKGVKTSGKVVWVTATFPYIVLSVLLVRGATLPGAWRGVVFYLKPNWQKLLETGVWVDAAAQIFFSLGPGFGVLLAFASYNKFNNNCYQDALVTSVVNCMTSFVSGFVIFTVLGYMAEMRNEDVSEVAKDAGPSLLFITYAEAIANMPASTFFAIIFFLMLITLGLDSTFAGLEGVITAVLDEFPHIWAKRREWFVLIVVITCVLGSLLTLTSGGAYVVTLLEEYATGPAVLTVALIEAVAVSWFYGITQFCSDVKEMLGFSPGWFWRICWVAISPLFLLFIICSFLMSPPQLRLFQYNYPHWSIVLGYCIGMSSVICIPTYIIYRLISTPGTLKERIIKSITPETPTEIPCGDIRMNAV

| SMILES | viability at 1 µM [1] [%] | viability at 5 µM [2] [%] | viability at 25 µM [3] [%] | viability at 125 µM [4] [%] | Activity [5] | Activity [6] | Activity [7] | Activity [8] | Activity [9] | Activity [10] | Activity [11] | Activity [12] | Activity ([8]; filed as antagonist) |
| --- | --- | --- | --- | --- | --- | --- | --- | --- | --- | --- | --- | --- | --- |
| Cc1ccc(C2(CN3CCCC(C)C3)OC(=O)c3ccccc32)cc1 (stereo not drawn) | 97.6 | 101 | 121 | 157 | inactive | – | – | – | – | – | – | – | – |
| CCOC(=O)C1CCN(CC2(c3ccc(Cl)cc3)OC(=O)c3ccccc32)CC1 (stereo not drawn) | 99 | 97 | 96.4 | 99 | inactive | – | – | – | – | – | – | – | – |
| CC1CCCN(CC2(c3ccc(Cl)cc3)OC(=O)c3ccccc32)C1 (stereo not drawn) | 99.2 | 98 | 102 | 104 | Active | – | – | – | – | – | – | – | – |
| CC1CCCN(CC2(c3ccccc3)OC(=O)c3ccccc32)C1 (stereo not drawn) | 92.7 | 101 | 116 | 141 | Active | – | – | – | – | – | – | – | – |
| O=C1OC(CN2CCCC2)(c2ccccc2)c2ccccc21 (stereo not drawn) | 119 | 139 | 133 | 181 | Active | – | – | – | – | – | – | – | – |
| Cc1ccc(C2(CN3CCCCC3)OC(=O)c3ccccc32)cc1 (stereo not drawn) | 101 | 98.4 | 99 | 108 | Active | – | – | – | – | – | – | – | – |
| CC(=O)N1CCN(CC2(c3ccc(C)cc3)OC(=O)c3ccccc32)CC1 (stereo not drawn) | 93.3 | 97.2 | 119 | 120 | Active | – | – | – | – | – | – | – | – |
| Cc1ccc(C2(CN3CCCCCC3)OC(=O)c3ccccc32)cc1 (stereo not drawn) | 98.8 | 106 | 140 | 171 | inactive | – | – | – | – | – | – | – | – |
| CCN(CC)CC1(c2ccccc2)OC(=O)c2ccccc21 (stereo not drawn) | 106 | 113 | 125 | 127 | Active | – | – | – | – | – | – | – | – |
| Cc1ccc(C2(CN3CCCC3)OC(=O)c3ccccc32)cc1 (stereo not drawn) | 94.8 | 95.5 | 100 | 122 | Active | – | – | – | – | – | – | – | – |
| C[C@@H](NC(=O)[C@@H](N)Cc1ccc(O)cc1)C(=O)NCC(=O)N(C)[C@@H](Cc1ccccc1)C(=O)NCCO | – | – | – | – | – | Active | – | – | – | – | – | – | – |
| CCOC(=O)C1CCN(CC2(c3ccccc3)OC(=O)c3ccccc32)CC1 (stereo not drawn) | 99.7 | 105 | 130 | 178 | inactive | – | – | – | – | – | – | – | – |
| O=C1OC(CN2CCCCC2)(c2ccc(Cl)cc2)c2ccccc21 (stereo not drawn) | 97.5 | 98.1 | 107 | 125 | Active; Activity Stronger Than Fluoxetine | – | inactive | inactive | inactive | inactive | – | – | – |
| O=C1OC(CN2CCCCCC2)(c2ccc(Cl)cc2)c2ccccc21 (stereo not drawn) | 104 | 109 | 119 | 144 | Active | – | – | – | – | – | – | – | – |
| CNCCC(Oc1ccc(C(F)(F)F)cc1)c1ccccc1 (stereo not drawn) | – | – | – | – | Active | – | – | – | – | – | Active | Active | – |
| O=C1OC(CN2CCCCCC2)(c2ccccc2)c2ccccc21 (stereo not drawn) | 97.8 | 101 | 95.5 | 100 | Active; Activity Stronger Than Fluoxetine | – | inactive | inactive | inactive | inactive | – | – | – |
| CCOC(=O)C1CCN(CC2(c3ccc(C)cc3)OC(=O)c3ccccc32)CC1 (stereo not drawn) | 102 | 108 | 125 | 157 | inactive | – | – | – | – | – | – | – | – |
| CCN(CC)CC1(c2ccc(C)cc2)OC(=O)c2ccccc21 (stereo not drawn) | 101 | 106 | 123 | 160 | Active | – | – | – | – | – | – | – | – |
| CC(=O)N1CCN(CC2(c3ccc(Cl)cc3)OC(=O)c3ccccc32)CC1 (stereo not drawn) | 99.8 | 106 | 125 | 141 | Active | – | – | – | – | – | – | – | – |
| CC(=O)N1CCN(CC2(c3ccccc3)OC(=O)c3ccccc32)CC1 (stereo not drawn) | 102 | 109 | 129 | 165 | inactive | – | – | – | – | – | – | – | – |
| C=CCN1CC[C@]23c4c5ccc(O)c4O[C@H]2C(=O)CC[C@@]3(O)[C@H]1C5 | – | – | – | – | – | – | – | – | – | – | – | – | Active |
| O=C1OC(CN2CCCCC2)(c2ccccc2)c2ccccc21 (stereo not drawn) | 99.2 | 102 | 118 | 112 | Active | – | – | – | – | – | – | – | – |
